Measured values as given in article PMC11790914, “Chemogenomics for steroid hormone receptors (NR3)” (Communications Chemistry, 2025).
Several values for one entry are separate records, joined by “and”; a condition that tells them apart may be missing. Equal entries are not always repeated. Where two headings read alike, the source gives them in different places.

Columns and labels:
[1] = test system: ATF6 activity in Hela ATF6 reporter cells; assay: Endoplasmic reticulum stress assay (ATF6 Renilla luciferase reporter, tunicamycin); assay type: cell-based; conditions: for activity at 1 µM: Homo sapiens, HeLa, single replicates n=1 to n=5, read-out: ER stress [rel. ATF6 activity]
Outline: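 HeLa ATF6 Renilla reporter cells were pretreated 4 h with compounds in 0.1% DMSO, then stimulated with tunicamycin (100 ng/mL) for 18 h. Renilla luminescence (DualGlo) was normalized to 0.1% DMSO control; five independent experiments.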

[2] = target: T1, AURKA (Homo sapiens, UniProt O14965); assay: Liability panel screening by DSF: AURKA; assay type: binding; conditions: DSF, 20 µM, n=2; read-out: Mean ΔTM AURKA
T1 construct: made in house
T1 sequence (O14965 1-403): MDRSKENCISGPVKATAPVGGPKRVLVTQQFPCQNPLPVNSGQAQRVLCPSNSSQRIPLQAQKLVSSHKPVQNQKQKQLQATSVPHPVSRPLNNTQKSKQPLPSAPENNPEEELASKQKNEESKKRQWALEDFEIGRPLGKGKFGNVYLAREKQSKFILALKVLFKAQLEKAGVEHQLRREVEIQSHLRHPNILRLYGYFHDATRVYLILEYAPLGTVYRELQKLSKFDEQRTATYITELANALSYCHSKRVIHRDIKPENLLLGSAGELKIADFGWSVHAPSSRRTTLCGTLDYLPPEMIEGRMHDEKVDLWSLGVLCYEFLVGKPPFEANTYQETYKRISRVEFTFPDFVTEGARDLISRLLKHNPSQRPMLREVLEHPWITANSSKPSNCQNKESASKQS
Outline: (§1)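 Recombinant protein at 2 µM in 10 mM HEPES pH 7.5 with 500 mM NaCl was mixed with SYPRO Orange (1:1000) and heated at 3 °C/min up to 85 °C. Tm was taken as the Boltzmann-fit inflection point. Shifts are ∆Tm in K from technical duplicates.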

[3] = test system: HEK293T cells; assay: Cytotoxicity: necrosis induction (red fluorescent dye for permeable plasma membranes); assay type: cell-based; conditions: 1 µM, 24 h, necrotic cell count normalized to 0.1% DMSO, single replicates;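 further: compounds applied in DMEM high glucose with 0.1% FCS and 0.1% DMSO, necrotic HEK293T cells counted by red staining of cells whose plasma membranes had become permeable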
[4] = target: T2, GSK3B (Homo sapiens, UniProt P49841); assay: Liability panel screening by DSF: GSK3B; assay type: binding; conditions: DSF, 20 µM, n=2; read-out: Mean ΔTM GSK3B
T2 construct: made in house
T2 sequence (P49841 whole entry, species assumed): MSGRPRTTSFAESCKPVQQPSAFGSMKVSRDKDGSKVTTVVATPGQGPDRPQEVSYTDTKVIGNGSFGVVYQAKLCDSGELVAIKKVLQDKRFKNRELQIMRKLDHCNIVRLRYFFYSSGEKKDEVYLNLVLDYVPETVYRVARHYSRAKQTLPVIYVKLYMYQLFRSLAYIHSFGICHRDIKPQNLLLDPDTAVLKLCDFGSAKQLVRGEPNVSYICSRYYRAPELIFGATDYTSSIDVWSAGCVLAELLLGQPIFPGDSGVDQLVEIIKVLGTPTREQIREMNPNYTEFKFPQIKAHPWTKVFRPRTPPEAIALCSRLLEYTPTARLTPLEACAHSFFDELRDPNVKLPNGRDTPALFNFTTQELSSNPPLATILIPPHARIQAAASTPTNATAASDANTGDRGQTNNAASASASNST

[5] = test system: NR3C2 (MR); conditions: cited from earlier work
[6] = target: T3, ABL1 (Homo sapiens, UniProt P00519); assay: Liability panel screening by DSF: ABL1; assay type: binding; conditions: DSF, 20 µM, n=2; read-out: Mean ΔTM ABL1
T3 construct: made in house
T3 sequence (P00519 whole entry, species assumed): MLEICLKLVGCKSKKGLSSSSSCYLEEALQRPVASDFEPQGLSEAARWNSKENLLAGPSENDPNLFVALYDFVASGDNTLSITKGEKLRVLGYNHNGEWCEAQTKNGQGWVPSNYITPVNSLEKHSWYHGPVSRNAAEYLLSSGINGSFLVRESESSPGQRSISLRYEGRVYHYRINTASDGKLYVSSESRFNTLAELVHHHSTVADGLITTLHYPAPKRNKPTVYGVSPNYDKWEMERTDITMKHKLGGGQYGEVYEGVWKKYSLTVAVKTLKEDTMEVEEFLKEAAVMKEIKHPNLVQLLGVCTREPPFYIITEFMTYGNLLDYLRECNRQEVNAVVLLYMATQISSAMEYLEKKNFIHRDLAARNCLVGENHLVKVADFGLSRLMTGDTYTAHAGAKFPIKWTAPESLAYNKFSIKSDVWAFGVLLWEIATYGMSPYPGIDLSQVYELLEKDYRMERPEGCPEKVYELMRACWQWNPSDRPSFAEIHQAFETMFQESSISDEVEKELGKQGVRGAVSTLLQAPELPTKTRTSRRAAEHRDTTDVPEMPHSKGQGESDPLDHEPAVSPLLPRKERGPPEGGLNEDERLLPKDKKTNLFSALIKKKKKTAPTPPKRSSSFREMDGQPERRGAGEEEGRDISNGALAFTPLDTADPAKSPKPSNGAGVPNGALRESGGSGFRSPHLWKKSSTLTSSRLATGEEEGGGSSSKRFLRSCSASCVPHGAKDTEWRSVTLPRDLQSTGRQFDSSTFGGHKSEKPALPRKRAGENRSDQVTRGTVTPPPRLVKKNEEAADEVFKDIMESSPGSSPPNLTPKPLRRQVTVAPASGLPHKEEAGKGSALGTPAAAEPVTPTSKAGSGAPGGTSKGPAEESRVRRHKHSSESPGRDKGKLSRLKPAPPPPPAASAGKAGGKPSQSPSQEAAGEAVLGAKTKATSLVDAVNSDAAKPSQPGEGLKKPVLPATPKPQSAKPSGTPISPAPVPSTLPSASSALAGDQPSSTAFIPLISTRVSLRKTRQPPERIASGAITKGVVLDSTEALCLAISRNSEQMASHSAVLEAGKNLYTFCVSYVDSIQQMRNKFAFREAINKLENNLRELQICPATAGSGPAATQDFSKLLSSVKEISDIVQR
Outline: as §1

[7] = target: T4, MAPK1 (Homo sapiens, UniProt P28482); assay: Liability panel screening by DSF: MAPK1; assay type: binding; conditions: DSF, 20 µM, n=2; read-out: Mean ΔTM MAPK1
T4 construct: made in house
T4 sequence (P28482 whole entry, species assumed): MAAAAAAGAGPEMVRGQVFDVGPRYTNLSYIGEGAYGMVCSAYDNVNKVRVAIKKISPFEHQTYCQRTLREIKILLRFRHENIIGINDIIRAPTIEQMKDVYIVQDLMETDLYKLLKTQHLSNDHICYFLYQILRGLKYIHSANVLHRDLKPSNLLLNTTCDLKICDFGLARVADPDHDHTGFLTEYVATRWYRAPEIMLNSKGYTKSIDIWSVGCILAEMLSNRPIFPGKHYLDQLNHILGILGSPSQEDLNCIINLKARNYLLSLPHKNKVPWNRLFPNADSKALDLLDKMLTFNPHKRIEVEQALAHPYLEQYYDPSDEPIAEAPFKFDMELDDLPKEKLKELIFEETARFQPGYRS
Outline: as §1

[8] = test system: HEK293T cells; assay: Cytotoxicity: metabolic activity (WST-8 / CCK-8 assay); conditions: 1 µM; HEK293T, 24 h; WST-8; normalized to 0.1% DMSO; single replicates
[9] = target: T5, CSNK1D (Homo sapiens, UniProt P48730); assay: Liability panel screening by DSF: CSNK1D; assay type: binding; conditions: DSF, 20 µM, n=2; read-out: Mean ΔTM CSNK1D
T5 construct: made in house
T5 sequence (P48730 whole entry, species assumed): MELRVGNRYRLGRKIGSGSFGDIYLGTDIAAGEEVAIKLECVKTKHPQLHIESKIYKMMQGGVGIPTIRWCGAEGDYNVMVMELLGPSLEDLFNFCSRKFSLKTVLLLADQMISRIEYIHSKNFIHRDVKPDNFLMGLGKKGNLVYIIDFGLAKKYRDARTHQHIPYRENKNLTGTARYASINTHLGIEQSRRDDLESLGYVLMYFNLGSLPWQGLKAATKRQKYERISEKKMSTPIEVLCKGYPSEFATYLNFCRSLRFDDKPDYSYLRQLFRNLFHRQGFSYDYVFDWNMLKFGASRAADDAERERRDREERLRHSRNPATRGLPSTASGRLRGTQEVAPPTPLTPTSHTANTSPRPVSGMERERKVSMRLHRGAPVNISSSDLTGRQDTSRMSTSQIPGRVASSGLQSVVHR
Outline: as §1

[10] = target: T6, TRIM24 (Homo sapiens, UniProt O15164); assay: Liability panel screening by DSF: TRIM24; assay type: binding; conditions: DSF, 20 µM, n=2; read-out: Mean ΔTM TRIM24
T6 construct: This panel comprised ten highly ligandable kinases and bromodomains; made in house
T6 sequence (O15164 899-1004 limits assumed): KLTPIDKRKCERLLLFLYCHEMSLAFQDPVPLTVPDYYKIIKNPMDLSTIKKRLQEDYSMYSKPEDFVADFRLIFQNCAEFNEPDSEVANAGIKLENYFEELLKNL
Outline: as §1

[11] = target: T7, FGFR3 (Homo sapiens, UniProt P22607); assay: Liability panel screening by DSF: FGFR3; assay type: binding; conditions: DSF, 20 µM, n=2; read-out: Mean ΔTM FGFR3
T7 construct: made in house
T7 sequence (P22607 23-806, species assumed): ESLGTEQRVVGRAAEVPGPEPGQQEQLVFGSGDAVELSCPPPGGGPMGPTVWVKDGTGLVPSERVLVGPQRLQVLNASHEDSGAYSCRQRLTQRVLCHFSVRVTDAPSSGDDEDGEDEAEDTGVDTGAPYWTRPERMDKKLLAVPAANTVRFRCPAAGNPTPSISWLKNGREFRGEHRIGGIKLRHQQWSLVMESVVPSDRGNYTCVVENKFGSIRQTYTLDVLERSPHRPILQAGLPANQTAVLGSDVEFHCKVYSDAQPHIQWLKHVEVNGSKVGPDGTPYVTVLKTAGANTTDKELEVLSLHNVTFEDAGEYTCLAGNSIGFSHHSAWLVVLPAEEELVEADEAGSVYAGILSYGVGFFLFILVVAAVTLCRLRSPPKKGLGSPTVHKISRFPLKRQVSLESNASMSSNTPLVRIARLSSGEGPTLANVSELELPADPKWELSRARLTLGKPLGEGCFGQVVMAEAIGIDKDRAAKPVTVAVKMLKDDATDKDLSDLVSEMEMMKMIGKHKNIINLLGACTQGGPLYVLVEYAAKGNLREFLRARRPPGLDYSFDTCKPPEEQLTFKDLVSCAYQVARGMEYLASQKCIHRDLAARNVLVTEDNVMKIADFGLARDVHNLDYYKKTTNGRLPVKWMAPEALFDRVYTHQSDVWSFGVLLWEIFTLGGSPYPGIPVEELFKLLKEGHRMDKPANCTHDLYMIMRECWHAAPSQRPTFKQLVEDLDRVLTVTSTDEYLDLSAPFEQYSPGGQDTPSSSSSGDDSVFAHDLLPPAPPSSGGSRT
Outline: as §1

[12] = test system: HEK293T cells; assay: Cytotoxicity: apoptosis induction (caspase-3/7 DEVD fluorogenic DNA dye); conditions: 1 µM; HEK293T, 24 h; apoptotic cell count normalized to 0.1% DMSO; single replicates
[13] = target: T8, CDK2 (Homo sapiens, UniProt P24941); assay: Liability panel screening by DSF: CDK2; assay type: binding; conditions: DSF, 20 µM, n=2; read-out: Mean ΔTM CDK2
T8 construct: made in house
Outline: as §1

[14] = target: T9, BRPF1 (Homo sapiens, UniProt P55201); assay: Liability panel screening by DSF: BRPF1; assay type: binding; conditions: read-out: Mean ΔTM BRPF1
T9 construct: This panel comprised ten highly ligandable kinases and bromodomains; made in house
T9 sequence (P55201 628-732 limits assumed): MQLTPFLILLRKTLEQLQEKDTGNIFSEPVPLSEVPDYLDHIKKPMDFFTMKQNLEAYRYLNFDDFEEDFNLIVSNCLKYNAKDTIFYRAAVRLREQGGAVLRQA
Outline: as §1

[15] = test system: HEK293T cells; assay: Cytotoxicity: growth-rate (change in confluence over 24 h); conditions: 1 µM, normalized to 0.1% DMSO control, single replicates (n=1...)
[16] = test system: NF-κB activity in HEK293 NF-κB reporter cells; assay: NF-kB activity assay (GFP reporter, ionomycin/PMA); assay type: cell-based; conditions: for Mean NFκB response: n=3
Outline: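 HEK293 NF-κB GFP reporter cells given compound in 0.1% DMSO for 4 h, then stimulated with ionomycin 100 ng/mL plus PMA 10 ng/mL. Imaged every 90 min over 24 h; GFP-positive cell count normalized to confluence, three independent biological replicates.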

[17] = target: T10, BRD4 (Homo sapiens, UniProt O60885); assay: Liability panel screening by DSF: BRD4; assay type: binding; conditions: DSF, 20 µM, n=2; read-out: Mean ΔTM BRD4
T10 construct: This panel comprised ten highly ligandable kinases and bromodomains; made in house
Outline: as §1

[18] = test system: NR3C1 (GR); conditions: cited from earlier work
[19] = test system: Gal4-VP16; assay type: cell-based; conditions: 1 µM; vs. DMSO ctrl; single replicates n=1-3
Description: Five hours after transfection, the cells were incubated with the NR3 CG compound candidates at the recommended concentrations by changing the medium to Opti-MEM supplemented with penicillin (100 µ/mL) and streptomycin (100 µg/mL) additionally containing 0.1% DMSO and the respective test compound or 0.1% DMSO alone as untreated control. Firefly (reporter) and renilla (control) luminescence were measured after 14–16 h incubation using the Dual-Glo® Luciferase Assay System (Promega, Fitchburg, Wisconsin, USA; #E2980) according to manufacturer’s protocol on a Tecan Spark® 10M multimode microplate reader (Tecan Group AG, Männedorf, Switzerland). To obtain relative light units (RLU) firefly luminescence was divided by renilla luminescence and multiplied by 1000. Fold activation was obtained by dividing the mean RLU of a test sample by the mean RLU of the DMSO (0.1%) control. Experiments were performed in singlets in at least three biologically independent repeats.
are labeled according to their mode of action (yellow - agonist, grey - antagonist, grey with label D - degrader) and grouped by their
NR3 subfamily main targets.
reporter activity at the indicated concentrations expressed as mean fold reporter gene activity (n=3).

Row | Compound | activity at 1 µM [1] | ΔTm at 20 µM [2] | Necrosis induction [NI] [3] | ΔTm at 20 µM [4] | ΔTm at 20 µM [6] | ΔTm at 20 µM [7] | Metabolic activity [MA] [8] | ΔTm at 20 µM [9] | ΔTm at 20 µM [10] | ΔTm at 20 µM [11] | Apoptosis induction [AI] [12] | ΔTm at 20 µM [13] | Growth rate [GR] [15] | Mean NFκB response ([16]; 1 µM, 1,5 h) | Mean NFκB response ([16]; 1 µM, 4,5 h) | Mean NFκB response ([16]; 1 µM, 7,5 h) | Mean NFκB response ([16]; 1 µM, 10,5 h) | Mean NFκB response ([16]; 1 µM, 13,5 h) | Mean NFκB response ([16]; 1 µM, 16,6 h) | Mean NFκB response ([16]; 1 µM, 19,5 h) | other results
1 | C[C@]12CCC(=O)C=C1CC[C@@H]1[C@@H]2[C@@H](O)C[C@]2(C=O)[C@@H](C(=O)CO)CC[C@@H]12 [Aldosterone] | 80% | 0.1 °C | 0.75 and 0.67 and 0.68 and 0.72 | -0.23 °C | -0.26 °C | 0.17 °C | 1.07 (2×) and 1.02 and 0.98 and 1.08 and 0.99 (2×) and 0.93 | -2.48e-05 °C | -0.91 °C | -0.16 °C | 0.40 and 0.56 and 0.73 and 0.75 and 0.46 and 0.86 | -0.06 °C | 0.87 and 0.57 and 0.92 and 1.28 and 0.95 and 0.82 and 0.93 and 0.54 and 0.81 and -0.31 | 2799.98 GFP+-cells/confluence ∙ 1000 | 3728.04 GFP+-cells/confluence ∙ 1000 | 7006.53 GFP+-cells/confluence ∙ 1000 | 14006.47 GFP+-cells/confluence ∙ 1000 | 19614.51 GFP+-cells/confluence ∙ 1000 | 24279.62 GFP+-cells/confluence ∙ 1000 | 27366.03 GFP+-cells/confluence ∙ 1000 | EC50 ([5]; (lit.), ref Supplementary Table 1, read-out: Potency [nM] EC50, NR3C2 (MR)): 0.34 ± 0.04 nM; ΔTm at 20 µM [14]: -1.02 °C; Mean NFκB response ([16]; 1 µM, 22,5 h): 29896.67 GFP+-cells/confluence ∙ 1000; Mean NFκB response ([16]; 1 µM, 3 h): 3180.38 GFP+-cells/confluence ∙ 1000; Mean NFκB response ([16]; 1 µM, 6 h): 4651.42 GFP+-cells/confluence ∙ 1000; Mean NFκB response ([16]; 1 µM, 9 h): 10914.09 GFP+-cells/confluence ∙ 1000; Mean NFκB response ([16]; 1 µM, 12 h): 17161.43 GFP+-cells/confluence ∙ 1000; Mean NFκB response ([16]; 1 µM, 15 h): 22438.14 GFP+-cells/confluence ∙ 1000; Mean NFκB response ([16]; 1 µM, 18 h): 25981.67 GFP+-cells/confluence ∙ 1000; Mean NFκB response ([16]; 1 µM, 21 h): 28773.18 GFP+-cells/confluence ∙ 1000; Mean NFκB response ([16]; 1 µM, 24 h): 30941.17 GFP+-cells/confluence ∙ 1000; ΔTm at 20 µM [17]: 0.17 °C
2 | CC(=O)OCC(=O)[C@@]1(O)CC[C@H]2[C@@H]3CCC4=CC(=O)CC[C@]4(C)[C@@]3(F)[C@@H](O)C[C@@]21C [Fludrocortisone acetate] | 82% | 0.09 °C | 1.13 and 1.14 and 1.54 and 1.19 | -0.61 °C | -0.12 °C | 0.55 °C | 1.08 (2×) and 0.93 and 1.06 and 1.01 and 0.96 and 1.04 and 1.00 | -0.08 °C | -0.96 °C | -0.06 °C | 1.14 and 1.39 and 1.56 and 1.37 and 1.13 and 1.61 | -0.73 °C | 1.03 and 5.01 and 1.16 and 1.40 and 1.04 and 0.96 and 0.90 and 1.39 and 3.00 and 9.23 | 3820.94 GFP+-cells/confluence ∙ 1000 | 4296.72 GFP+-cells/confluence ∙ 1000 | 6095.26 GFP+-cells/confluence ∙ 1000 | 8052.10 GFP+-cells/confluence ∙ 1000 | 9784.85 GFP+-cells/confluence ∙ 1000 | 11376.50 GFP+-cells/confluence ∙ 1000 | 12926.78 GFP+-cells/confluence ∙ 1000 | ATF6 activity (tunicamycin-induced endoplasmic reticulum stress) ([1]; Hela ATF6 reporter cells, tunicamycin 100 ng/mL, 18 h, compounds at recommended concentrations, n = 5): Consistently weaker ATF6 activity; rel. activity from literature, NR3C2 (MR): fold activation [5]: ~ 41 fold; EC50 ([18]; (lit.), ref Supplementary Table 1, read-out: Potency [nM] EC50, NR3C1 (GR)): 4 nM; rel. activity from literature, NR3C1 (GR): fold activation [18]: ~ 1000 fold; VP16 control [fold reporter gene activity] [19]: 0.96 fold reporter gene activity and 0.81 fold reporter gene activity and 0.89 fold reporter gene activity; ΔTm at 20 µM ([14]; DSF, 20 µM, n=2): -0.43 °C; Mean NFκB response ([16]; 1 µM, 22,5 h): 13912.05 GFP+-cells/confluence ∙ 1000; Mean NFκB response ([16]; 1 µM, 3 h): 3762.70 GFP+-cells/confluence ∙ 1000; Mean NFκB response ([16]; 1 µM, 6 h): 5124.39 GFP+-cells/confluence ∙ 1000; Mean NFκB response ([16]; 1 µM, 9 h): 7003.20 GFP+-cells/confluence ∙ 1000; Mean NFκB response ([16]; 1 µM, 12 h): 8806.82 GFP+-cells/confluence ∙ 1000; Mean NFκB response ([16]; 1 µM, 15 h): 10595.86 GFP+-cells/confluence ∙ 1000; Mean NFκB response ([16]; 1 µM, 18 h): 12286.70 GFP+-cells/confluence ∙ 1000; Mean NFκB response ([16]; 1 µM, 21 h): 13535.05 GFP+-cells/confluence ∙ 1000; Mean NFκB response ([16]; 1 µM, 24 h): 14315.67 GFP+-cells/confluence ∙ 1000; NF-κB activity (inflammatory response to ionomycin/PMA) ([16]; HEK293 NF-κB reporter cells, compounds at recommended concentrations, imaged over 24 h, n = 3): consistently delayed and strongly diminished NF-κB activity; ΔTm at 20 µM [17]: -0.79 °C
